Results reported in patent US5426186A (priority 1993, dated 1995).
Where a name gives a salt, the structure may show the parent alone.

Target: GABAa receptor
Assay: GABAa receptor binding assay, displacement of 3H-RO15-1788 from rat cortical tissue
Details: 0.5 nM 3H-RO15-1788, rat cortical homogenate, 4° C., nonspecific binding with 1.0 μM diazepam
Protocol: The pharmaceutical utility of compounds of this invention are indicated by the following assay for GABAa receptor activity.
Assays are carried out as described in Thomas and Tallman (J. Bio. Chem. 156: 9838-9842, J. Neurosci. 3:433-440, 1983). Rat cortical tissue is dissected and homogenized in 25 volumes (w/v) of 0.05M Tris HCl buffer (pH 7.4 at 4° C.). The tissue homogenate is centrifuged in the cold (4°) at 20,000×g for 20'. The supernatant is decanted and the pellet is rehomogenized in the same volume of buffer and again centrifuged at 20,000×g. The supernatant is decanted and the pellet is frozen at -20° C. overnight. The pellet is then thawed and rehomogenized in 25 volume (original wt/vol) of buffer and the procedure is carried out twice. The pellet is finally resuspended in 50 volumes (w/vol of 0.05M Tris HCl buffer (pH 7.4 at […]).
Incubations contain 100 μl of tissue homogenate, 100 μl of radioligand 0.5 nM (^3 H-RO15-1788 specific activity 80 Ci/mmol), drug or blocker and buffer to a total volume of 500 μl. Incubations are carried for 30 rain at 4° C. then are rapidly filtered through GFB filters to separate free and bound ligand. Filters are washed twice with fresh 0.05M Tris HCl buffer (pH 7.4 at 4° C.) and counted in a liquid scintillation counter 1.0 μM diazepam is added to some tubes to determine nonspecific binding. Data are collected in triplicate determinations, averaged and % inhibition of total specific binding is calculated. Total Specific Binding=Total-Nonspecific. In some cases, the amounts of unlabeled drugs is varied and total displacement curves of binding are carried out. Data are converted to a form for the calculation of IC50 and Hill Coefficient (nH).

## CCOC(=O)C1CCc2[nH]c(=O)n3cc(-c4ccccc4F)nc3c2C1 (stereo not shown) [Compound 1, 9-Carboethoxy-2-(2-fluorophenyl)-7,8,9,10-tetrahydro-imidazo[1,2-c]-quinazolin-5(6H)-one]
  IC50: 7 nM

## O=c1[nH]c2c(c3nc(-c4ccccc4F)cn13)CCCC2 [Compound 5, 2-(2-Fluorophenyl)-7,8,9,10-tetrahydro-imidazo[1,2-c]-quinazolin-5(6H)-one]
  IC50: 7 nM

## O=c1[nH]c2c(c3nc(-c4ccccc4)cn13)CCC2 [Compound 12, 2-Phenyl-8,9-dihydro-7H-cyclopent[g]-imidazo[1,2-c]-pyrimidin-5(6H)-one]
  IC50: 400 nM

## O=c1[nH]c2c(c3nc(-c4ccccc4)cn13)CCCCC2 [Compound 13, 2-Phenyl-8,9,10,11-tetrahydro-7H-cyclohept[g]-imidazo[1,2-c]pyrimidin-5(6H)-one]
  IC50: 800 nM

## CC(C)OC(=O)C1CCc2[nH]c(=O)n3cc(-c4ccccc4F)nc3c2C1 (stereo not shown) [Compound 14, 9-Carboisopropoxy-2-(2-fluorophenyl)-7,8,9,10-tetrahydro-imidazo[1,2-c]-quinazolin-5(6H)-one]
  IC50: 10 nM

## CN(C)C(=O)C1CCc2[nH]c(=O)n3cc(-c4ccccc4F)nc3c2C1 (stereo not shown) [Compound 18, 9-(N,N-Dimethylcarbamyl)-2-(2-fluorophenyl)-7,8,9,10-tetrahydro-imidazo[1,2-c]-quinazolin-5(6H)-one]
  IC50: 10 nM

## CN(C)CC1CCc2[nH]c(=O)n3cc(-c4ccccc4F)nc3c2C1 (stereo not shown) [Compound 24, 9-(N,N-Dimethylaminomethyl)-2-(2-fluoropenyl)-7,8,9,10-tetrahydro-imidazo[1,2-c]-quinazolin-5(6H)-one monohydrochloride]
  IC50: 30 nM

## CC(C)(C)OC(=O)NC1CCc2[nH]c(=O)n3cc(-c4ccccc4F)nc3c2C1 (stereo not shown) [Compound 28, 9-(t-Butoxycarbonylamino)-2-(2-fluorophenyl)-7,8,9,10-tetrahydro-imidazo[1,2-c]-quinazolin-5(6H)-one]
  IC50: 150 nM

## Fc1ccccc1-c1cn2c(NCc3ccccc3)nc3c(c2n1)CCCC3 [Compound 31, 5-(N-benzylamino)-2-(2-fluorophenyl)-7,8,9,10-tetrahydro-imidazo[1,2-c]-quinazoline]
  IC50: 2000 nM

## Nc1nc2c(c3nc(-c4ccccc4F)cn13)CCCC2 [Compound 33, 5-Amino-2-(2-fluorophenyl)-7,8,9,10-tetrahydro-imidazo[1,2-c]-quinazoline]
  IC50: 100 nM

## CCOc1nc2c(c3nc(-c4ccccc4F)cn13)CCCC2 [Compound 39, 5-Ethoxy-2-(2-fluorophenyl)-7,8,9,10-tetrahydro-imidazo[1,2-c]-quinazoline]
  IC50: 5000 nM

## COc1ccc(-c2cn3c(=O)[nH]c4c(c3n2)CCCC4)cc1 [Compound 50, 2-(4-Methoxyphenyl)-7,8,9,10-tetrahydro-imidazo[1,2-c]-quinazolin-5(6H)-one]
  IC50: 50 nM

## COc1ccc(-c2cn3c(=O)[nH]c4c(c3n2)CCCC4)c(F)c1 [Compound 51, 2-(2-Fluoro-4-methoxyphenyl)-7,8,9,10-tetrahydro-imidazo[1,2-c]-quinazolin-5(6H)-one]
  IC50: 3 nM
